The source made the active and inactive calls.
Tests used:
Assay type in all cases: functional
[1] = biological target: T1, Sentrin-specific protease 6 (Homo sapiens, UniProt Q9GZR1);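 further: Luminescence-based dose-response confirmatory assay of SENP6 inhibition, following up an ultra-high-throughput screen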
T1 sequence (Q9GZR1 whole entry): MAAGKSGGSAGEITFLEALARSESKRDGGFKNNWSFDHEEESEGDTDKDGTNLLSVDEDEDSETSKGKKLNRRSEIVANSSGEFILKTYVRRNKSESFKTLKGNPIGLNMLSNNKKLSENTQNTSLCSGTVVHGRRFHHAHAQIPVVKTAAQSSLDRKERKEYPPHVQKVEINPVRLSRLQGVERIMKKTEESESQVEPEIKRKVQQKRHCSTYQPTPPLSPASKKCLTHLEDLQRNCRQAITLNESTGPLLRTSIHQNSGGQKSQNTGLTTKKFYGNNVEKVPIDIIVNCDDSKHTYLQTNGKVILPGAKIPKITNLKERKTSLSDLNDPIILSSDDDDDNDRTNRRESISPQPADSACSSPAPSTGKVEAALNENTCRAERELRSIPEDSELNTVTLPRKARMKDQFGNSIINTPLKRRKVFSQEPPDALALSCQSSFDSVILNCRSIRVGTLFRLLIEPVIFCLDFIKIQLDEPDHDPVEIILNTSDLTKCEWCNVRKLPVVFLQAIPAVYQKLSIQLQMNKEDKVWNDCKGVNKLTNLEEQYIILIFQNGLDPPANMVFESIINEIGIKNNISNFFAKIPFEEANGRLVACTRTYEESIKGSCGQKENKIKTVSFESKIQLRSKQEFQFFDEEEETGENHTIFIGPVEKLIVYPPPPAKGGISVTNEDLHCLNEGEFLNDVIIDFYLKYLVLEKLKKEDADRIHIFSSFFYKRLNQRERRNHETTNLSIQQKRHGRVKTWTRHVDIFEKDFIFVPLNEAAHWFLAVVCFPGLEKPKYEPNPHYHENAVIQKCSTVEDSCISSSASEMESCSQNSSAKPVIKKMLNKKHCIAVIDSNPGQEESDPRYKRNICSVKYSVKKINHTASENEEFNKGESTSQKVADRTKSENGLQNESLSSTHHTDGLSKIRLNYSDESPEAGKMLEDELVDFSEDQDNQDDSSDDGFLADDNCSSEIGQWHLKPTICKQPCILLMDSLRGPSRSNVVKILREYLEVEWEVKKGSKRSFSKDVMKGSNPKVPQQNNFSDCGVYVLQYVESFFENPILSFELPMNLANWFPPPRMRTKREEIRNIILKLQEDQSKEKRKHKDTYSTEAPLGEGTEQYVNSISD

[2] = biological target: T2, Sentrin-specific protease 8 (Homo sapiens, UniProt Q96LD8)
T2 sequence (Q96LD8 whole entry): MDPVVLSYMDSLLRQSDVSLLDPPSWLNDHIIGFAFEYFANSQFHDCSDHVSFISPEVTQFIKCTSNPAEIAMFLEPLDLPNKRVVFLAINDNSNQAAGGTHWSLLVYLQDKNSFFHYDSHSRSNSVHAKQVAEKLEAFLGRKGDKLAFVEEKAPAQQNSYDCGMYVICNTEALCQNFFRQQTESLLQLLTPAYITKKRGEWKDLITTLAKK

[3] = Luminescence Cell-Based Dose Response HTS to Identify Activators of Luciferase Translation or Activity in H4 […] Cells. [Related pubchem assays: 1829 (Project Summary), 1814 (Primary HTS)]
[4] = Luminescence Cell-Based Dose Confirmation HTS to Identify Activators of 5'UTR Stem-Loop Driven Alpha-Synuclein mRNA Translation in H4 Neuroglioblastoma Cells. [Related pubchem assays: 1829 (Project Summary), 1814 (Primary HTS)]
[5] = biological target: T2, Sentrin-specific protease 8; remark: listed apart in the source
[6] = biological target: Ribosomal protein S6 kinase beta-1 (Homo sapiens, UniProt P23443);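 further: measured as one member of a kinome-wide profiling panel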
[7] = biological target: Serine/threonine-protein kinase 3 (Homo sapiens, UniProt Q13188);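 further: measured as one member of a kinome-wide kinase panel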
[8] = biological target: Tyrosine-protein kinase SYK (Homo sapiens, UniProt P43405)
[9] = biological target: Tyrosine-protein kinase ITK/TSK (Homo sapiens, UniProt Q08881);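 further: affinity for ITK measured as one member of a broad kinase panel profiling binding across the kinome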
[10] = biological target: Mitogen-activated protein kinase kinase kinase kinase 5 (Homo sapiens, UniProt Q9Y4K4);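 further: measured as one member of a kinome-spanning kinase panel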
[11] = biological target: BDNF/NT-3 growth factors receptor (Homo sapiens, UniProt Q16620);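 further: NTRK2 measured as one member of a broad kinome-wide kinase profiling panel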
[12] = biological target: Mast/stem cell growth factor receptor Kit (Homo sapiens, UniProt P10721);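 further: KIT entry within a kinase panel assay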
[13] = biological target: Mitogen-activated protein kinase 1 (Homo sapiens, UniProt P28482)
[14] = biological target: Insulin receptor (Homo sapiens, UniProt P06213);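 further: insulin receptor kinase tested as one member of a kinome-wide kinase panel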
[15] = biological target: cGMP-dependent protein kinase 1 (Homo sapiens, UniProt Q13976);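 further: value from a kinome panel screen with PRKG1 as the panel member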
[16] = biological target: Non-receptor tyrosine-protein kinase TYK2 (Homo sapiens, UniProt P29597)
[17] = biological target: Maternal embryonic leucine zipper kinase (Homo sapiens, UniProt Q14680)
[18] = biological target: Phosphorylase b kinase gamma catalytic chain, liver/testis isoform (Homo sapiens, UniProt P15735);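 further: PHKG2 measured as one member of a kinome-wide kinase panel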
[19] = biological target: Serine/threonine-protein kinase 17A (Homo sapiens, UniProt Q9UEE5)
[20] = biological target: MAP kinase-activated protein kinase 3 (Homo sapiens, UniProt Q16644);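 further: value comes from a kinome-wide profiling panel in which MAPKAPK3 is one of the panel members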
[21] = biological target: Interleukin-1 receptor-associated kinase 4 (Homo sapiens, UniProt Q9NWZ3)
[22] = biological target: STE20-like serine/threonine-protein kinase (Homo sapiens, UniProt Q9H2G2)
[23] = biological target: Calcium/calmodulin-dependent protein kinase type II subunit gamma (Homo sapiens, UniProt Q13555)
[24] = biological target: Protein kinase C delta type (Homo sapiens, UniProt Q05655)
[25] = biological target: Protein kinase C zeta type (Homo sapiens, UniProt Q05513);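 further: measured as one member of a broad kinase profiling panel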
[26] = biological target: G protein-coupled receptor kinase 5 (Homo sapiens, UniProt P34947); test: Navigating the Kinome. Panel member name: GPRK5
[27] = biological target: High affinity nerve growth factor receptor (Homo sapiens, UniProt P04629);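 further: NTRK1 tested as one member of a kinome-wide profiling panel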

Sequence of MAP kinase-activated protein kinase 3 (Q16644 whole entry): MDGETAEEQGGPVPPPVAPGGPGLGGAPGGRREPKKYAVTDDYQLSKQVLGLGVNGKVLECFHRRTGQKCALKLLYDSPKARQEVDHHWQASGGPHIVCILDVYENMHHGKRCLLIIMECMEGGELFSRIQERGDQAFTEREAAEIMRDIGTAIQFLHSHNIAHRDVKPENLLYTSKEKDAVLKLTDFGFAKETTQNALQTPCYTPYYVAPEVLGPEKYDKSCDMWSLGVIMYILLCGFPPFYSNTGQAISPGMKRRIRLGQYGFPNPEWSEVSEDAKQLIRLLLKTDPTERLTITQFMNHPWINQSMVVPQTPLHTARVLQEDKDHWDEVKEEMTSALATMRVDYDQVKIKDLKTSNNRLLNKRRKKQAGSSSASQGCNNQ
Sequence of Mitogen-activated protein kinase kinase kinase kinase 5 (Q9Y4K4 whole entry): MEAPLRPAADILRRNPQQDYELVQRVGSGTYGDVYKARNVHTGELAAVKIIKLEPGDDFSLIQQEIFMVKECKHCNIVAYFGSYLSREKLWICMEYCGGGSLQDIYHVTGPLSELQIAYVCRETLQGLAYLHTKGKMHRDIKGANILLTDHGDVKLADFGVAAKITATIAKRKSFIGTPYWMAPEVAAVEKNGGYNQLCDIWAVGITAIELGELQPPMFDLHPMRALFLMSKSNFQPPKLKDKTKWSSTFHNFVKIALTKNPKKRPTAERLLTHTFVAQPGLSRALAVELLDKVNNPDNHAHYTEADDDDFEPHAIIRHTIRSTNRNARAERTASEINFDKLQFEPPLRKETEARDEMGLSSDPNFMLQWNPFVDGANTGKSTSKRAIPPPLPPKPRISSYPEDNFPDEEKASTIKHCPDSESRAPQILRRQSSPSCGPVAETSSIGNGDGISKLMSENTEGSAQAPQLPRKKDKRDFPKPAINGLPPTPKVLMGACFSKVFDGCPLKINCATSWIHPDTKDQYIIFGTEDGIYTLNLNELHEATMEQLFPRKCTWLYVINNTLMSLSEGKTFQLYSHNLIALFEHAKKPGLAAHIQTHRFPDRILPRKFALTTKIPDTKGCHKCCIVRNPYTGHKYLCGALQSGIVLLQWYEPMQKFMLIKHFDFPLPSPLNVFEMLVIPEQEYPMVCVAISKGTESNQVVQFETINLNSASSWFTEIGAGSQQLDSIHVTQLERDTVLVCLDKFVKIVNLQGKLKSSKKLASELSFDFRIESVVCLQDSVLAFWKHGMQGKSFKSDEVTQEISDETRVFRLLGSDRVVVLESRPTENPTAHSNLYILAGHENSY
Sequence of Interleukin-1 receptor-associated kinase 4 (Q9NWZ3 whole entry): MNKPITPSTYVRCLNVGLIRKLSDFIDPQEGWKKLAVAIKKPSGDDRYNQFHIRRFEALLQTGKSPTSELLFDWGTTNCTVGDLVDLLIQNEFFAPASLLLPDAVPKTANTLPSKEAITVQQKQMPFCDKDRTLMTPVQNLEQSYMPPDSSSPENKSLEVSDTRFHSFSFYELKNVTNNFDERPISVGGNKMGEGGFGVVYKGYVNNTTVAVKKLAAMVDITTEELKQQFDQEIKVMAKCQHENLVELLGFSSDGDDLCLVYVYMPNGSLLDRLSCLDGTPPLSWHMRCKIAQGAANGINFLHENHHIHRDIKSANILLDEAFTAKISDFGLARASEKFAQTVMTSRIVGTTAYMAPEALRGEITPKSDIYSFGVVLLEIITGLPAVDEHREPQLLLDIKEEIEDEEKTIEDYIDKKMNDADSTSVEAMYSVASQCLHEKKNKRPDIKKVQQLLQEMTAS
Sequence of Calcium/calmodulin-dependent protein kinase type II subunit gamma (Q13555 whole entry): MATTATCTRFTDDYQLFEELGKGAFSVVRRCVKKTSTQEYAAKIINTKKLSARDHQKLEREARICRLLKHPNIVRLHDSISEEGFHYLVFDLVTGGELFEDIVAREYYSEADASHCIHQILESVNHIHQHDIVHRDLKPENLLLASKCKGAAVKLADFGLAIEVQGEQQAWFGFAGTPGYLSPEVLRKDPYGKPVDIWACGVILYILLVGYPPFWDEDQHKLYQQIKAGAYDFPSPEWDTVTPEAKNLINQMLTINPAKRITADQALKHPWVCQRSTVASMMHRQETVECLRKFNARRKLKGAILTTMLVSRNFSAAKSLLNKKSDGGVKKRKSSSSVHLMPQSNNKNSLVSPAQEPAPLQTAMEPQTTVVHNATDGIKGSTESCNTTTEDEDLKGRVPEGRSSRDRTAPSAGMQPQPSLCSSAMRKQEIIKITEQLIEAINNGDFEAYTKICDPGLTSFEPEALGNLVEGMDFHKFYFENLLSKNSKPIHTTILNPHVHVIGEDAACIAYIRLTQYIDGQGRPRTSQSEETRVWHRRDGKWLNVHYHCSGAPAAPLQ
Sequence of G protein-coupled receptor kinase 5 (P34947 whole entry): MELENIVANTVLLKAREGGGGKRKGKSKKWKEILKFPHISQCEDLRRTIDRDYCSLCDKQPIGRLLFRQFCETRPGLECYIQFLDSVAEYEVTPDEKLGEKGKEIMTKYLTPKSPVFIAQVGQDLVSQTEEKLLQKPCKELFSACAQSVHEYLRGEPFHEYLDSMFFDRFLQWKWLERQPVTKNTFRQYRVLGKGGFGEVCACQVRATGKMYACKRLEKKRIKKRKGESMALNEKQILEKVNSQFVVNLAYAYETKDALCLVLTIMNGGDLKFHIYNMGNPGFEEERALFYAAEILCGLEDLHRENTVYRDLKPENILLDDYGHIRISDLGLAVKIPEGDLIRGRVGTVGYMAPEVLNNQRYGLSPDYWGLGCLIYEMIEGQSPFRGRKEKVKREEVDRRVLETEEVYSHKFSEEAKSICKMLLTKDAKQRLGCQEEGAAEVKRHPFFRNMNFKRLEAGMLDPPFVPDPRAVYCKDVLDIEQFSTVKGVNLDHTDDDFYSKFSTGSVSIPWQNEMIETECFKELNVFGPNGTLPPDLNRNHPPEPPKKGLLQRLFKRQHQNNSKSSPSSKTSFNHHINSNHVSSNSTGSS
Sequence of Serine/threonine-protein kinase 3 (Q13188 whole entry): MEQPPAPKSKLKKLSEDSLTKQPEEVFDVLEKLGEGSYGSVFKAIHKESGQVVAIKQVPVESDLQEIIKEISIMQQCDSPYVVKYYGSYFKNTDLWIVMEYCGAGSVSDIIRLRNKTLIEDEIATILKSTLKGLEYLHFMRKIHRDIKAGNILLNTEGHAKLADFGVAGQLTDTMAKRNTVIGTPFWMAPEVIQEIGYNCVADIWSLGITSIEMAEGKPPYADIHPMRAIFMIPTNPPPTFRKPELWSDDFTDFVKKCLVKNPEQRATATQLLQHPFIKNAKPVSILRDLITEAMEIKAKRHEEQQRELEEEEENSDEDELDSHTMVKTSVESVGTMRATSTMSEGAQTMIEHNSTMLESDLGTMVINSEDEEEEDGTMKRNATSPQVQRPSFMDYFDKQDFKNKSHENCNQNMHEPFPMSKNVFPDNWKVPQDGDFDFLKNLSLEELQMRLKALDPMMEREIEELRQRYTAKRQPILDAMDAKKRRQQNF
Sequence of BDNF/NT-3 growth factors receptor (Q16620 whole entry): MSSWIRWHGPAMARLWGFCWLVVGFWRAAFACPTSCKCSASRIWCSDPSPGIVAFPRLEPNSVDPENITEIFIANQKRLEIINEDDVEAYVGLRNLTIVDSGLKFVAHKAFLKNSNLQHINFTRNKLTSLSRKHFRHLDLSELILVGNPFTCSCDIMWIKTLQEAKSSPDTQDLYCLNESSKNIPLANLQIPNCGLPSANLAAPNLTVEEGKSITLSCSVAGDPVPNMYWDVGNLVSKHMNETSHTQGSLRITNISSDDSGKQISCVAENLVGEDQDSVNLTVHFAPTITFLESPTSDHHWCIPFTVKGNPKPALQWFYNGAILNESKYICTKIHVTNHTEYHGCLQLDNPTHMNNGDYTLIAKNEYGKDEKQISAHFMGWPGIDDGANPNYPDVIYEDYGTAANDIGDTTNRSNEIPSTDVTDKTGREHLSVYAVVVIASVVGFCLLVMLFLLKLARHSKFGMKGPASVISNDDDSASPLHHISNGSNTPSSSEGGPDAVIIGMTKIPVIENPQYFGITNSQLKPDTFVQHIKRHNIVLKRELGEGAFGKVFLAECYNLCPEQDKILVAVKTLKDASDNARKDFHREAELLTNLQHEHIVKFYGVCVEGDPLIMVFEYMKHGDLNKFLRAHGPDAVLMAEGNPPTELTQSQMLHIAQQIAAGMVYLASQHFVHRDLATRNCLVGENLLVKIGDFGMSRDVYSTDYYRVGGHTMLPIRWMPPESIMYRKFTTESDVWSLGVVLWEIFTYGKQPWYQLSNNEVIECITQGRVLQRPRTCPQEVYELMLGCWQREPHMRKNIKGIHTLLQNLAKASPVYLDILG
Sequence of Protein kinase C zeta type (Q05513 whole entry): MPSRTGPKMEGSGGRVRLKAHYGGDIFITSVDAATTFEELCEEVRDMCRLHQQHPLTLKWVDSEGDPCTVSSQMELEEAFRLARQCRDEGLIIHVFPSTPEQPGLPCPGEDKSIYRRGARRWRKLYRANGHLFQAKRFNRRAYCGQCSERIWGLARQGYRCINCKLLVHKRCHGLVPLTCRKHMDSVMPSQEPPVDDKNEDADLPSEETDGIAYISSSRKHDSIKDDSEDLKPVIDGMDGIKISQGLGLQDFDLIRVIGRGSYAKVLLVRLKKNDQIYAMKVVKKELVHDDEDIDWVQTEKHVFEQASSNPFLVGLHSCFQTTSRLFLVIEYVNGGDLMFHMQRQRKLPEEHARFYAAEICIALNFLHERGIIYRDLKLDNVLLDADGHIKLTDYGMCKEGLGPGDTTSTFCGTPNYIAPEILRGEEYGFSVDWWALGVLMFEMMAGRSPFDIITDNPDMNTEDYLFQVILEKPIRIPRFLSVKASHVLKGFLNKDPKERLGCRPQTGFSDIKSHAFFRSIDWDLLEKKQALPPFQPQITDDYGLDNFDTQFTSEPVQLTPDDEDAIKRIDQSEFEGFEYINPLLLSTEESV

SMILES: O=C1C2=[N+]([O-])[C@H]3CCCC[C@H]3[N+]([O-])=C2c2ccccc21
- IC50 [1]: 10200 nM (active)
- IC50 [2]: 5980 nM (active)
- EC50 [3]: 14900 nM (active)
- EC50 [4]: > 120000 nM (not active)
- IC50 [5]: 21500 nM (active)

SMILES: NC1CCC(Nc2nccc(-c3c[nH]c4ncccc34)n2)CC1 (configuration not stated)
- Ki [6]: 501 nM (active)
- Ki [7]: 39.8 nM (active)
- Ki [8]: > 1580 nM (inactive)
- Ki [9]: 631 nM (active)
- Ki [10]: 25.1 nM (active)
- Ki [11]: > 5010 nM (inactive)
- Ki [12]: > 1260 nM (inactive)
- Ki [13]: 1580 nM (active)
- Ki [14]: 501 nM (active)
- Ki [15]: 100 nM (active)
- Ki [16]: 794 nM (active)
- Ki [17]: 126 nM (active)
- Ki [18]: 100 nM (active)
- Ki [19]: 31.6 nM (active)
- Ki [20]: > 10000 nM (inactive)
- Ki [21]: 50.1 nM (active)
- Ki [22]: 398 nM (active)
- Ki [23]: 3.98 nM (active)
- Ki [24]: 3.16 nM (active)

SMILES: COC(C(=O)N1Cc2[nH]nc(NC(=O)c3ccc(N4CCN(C)CC4)cc3)c2C1)c1ccccc1 (configuration not stated)
- Ki [25]: > 7940 nM (inactive)
- Ki [26]: > 3980 nM (inactive)

SMILES: CC(C)(O)c1cn(-c2ccc3[nH]ncc3c2)nn1
- Ki [27]: 79400 nM (active)

From ChEMBL document CHEMBL1201862, “PubChem BioAssay data set” (2004)
